# The OligoGym collection
# These antisense oligonucleotides have a phosphorothioate backbone; sugars and methylation of C are not fully specified.
# Target: PTPN6
# Settings: ASO
# Further: test concentration or dose not given here.
row,Sequence,remaining target (mRNA or protein) (fraction of control)
1,ATGTGGCCATGGTACCACCT,≥ 1
2,GCGCCTGAGGCCTCCTCAAT,0.84
3,CCACGGGACAGCATCTCTCT,≥ 1
4,TCAGCCGCATTCACCCTCGT,0.54
5,CCACCTGAGGACAGCACCGC,0.84
6,GACCCCATGGTCGGGCCAGC,≥ 1
7,GTGCAGGTTCTCATACACAT,0.64
8,GCCAGGTGAGGAAGAACCGC,≥ 1
9,GCCTGGGCCAGCCTTGGGCT,≥ 1
10,GCCACGCCATCTGCCAGAAG,0.7
11,CCACCCACGGGACAGCATCT,≥ 1

# Target: MAP3K5
# Settings: ASO
row,Sequence,remaining target (mRNA or protein) (fraction of control)
1,CATCTCTCCGGGCCGGGCAG,0.61
2,AAGAAGATCAGCTCTGTATT,0.49
3,CAAATTCTCTGAGGCTTGCA,0.54
4,GGCCTCGCTCTCGGCCACCA,0.03
5,CGTCCGCCTCCGTGCTCATC,0.12
6,CAAATTTAGAAATACTCACT,0.85
7,CCTCCGTGCTCATCTCTCCG,0.09
8,CGCTGCCCGGCGGCGGCTCG,0.78
9,TCTGCTTTCAGTGTCCGTGA,0.21
10,CGTGCTCATCTCTCCGGGCC,0.12
11,CTCCCAGTTCATAAAATGGG,0.85
12,TGCTCATCTCTCCGGGCCGG,0.4
13,TCCGTGCTCATCTCTCCGGG,0.17
14,CTCTGTCACCATTTTCATCA,0.41
15,CGCCTCCGTGCTCATCTCTC,0.1
16,CTTGAGGTACCATGCTGGTG,0.36
17,GAAGCCGGGTGAGCGGGAAG,0.34
18,GCCGGCTGACAAGTCGGCTC,0.43
19,CAGCTCAAGGGCGCCGCGCT,0.59
20,AGGGTTTCCAGGGTGGCGCC,0.52

row,Sequence,remaining target (mRNA or protein) (fraction of control)
1,TCTCTCCGGGCCGGGCAGCA,≥ 1
2,ATGTTGTTGGCCATGCTGAA,0.31
3,TCTAATGTTCAGGATTATTT,≥ 1
4,CCAGAAGCTGCCCGGCGGCG,0.56
5,TTCTAAAGTCTCTACCAGCT,0.24
6,TGTCAACCCCTTCATGAAGC,0.19
7,TCCGCCTCCGTGCTCATCTC,0.12
8,ACCGGCTTATAGTGTCTTCA,0.73
9,CACTGCTCGAGGAGGTGGCC,0.47
10,CCGAATTCCCTTGACATCTC,0.62
11,CATCAACAAGCAAGTCGTTA,0.37
12,GCACGATCACATGAATGTTA,0.58
13,TGAGCAACAGTCAAGTCTGT,0.56
14,AGTAAACAAATACTGGATTT,0.77
15,ATGTCATTGAGTATAGATTC,0.69
16,CAGTAACATCTGTCTTTGTG,0.62
17,GAACTATCTGATTGTCATGG,0.83
18,TTCGTCCGCCTCCGTGCTCA,0.18
19,CTCATCTCTCCGGGCCGGGC,0.3
20,GGATGGTGCAGAAGCCCGAG,0.5

# Target: BIRC5
# Settings: ASO
row,Sequence,remaining target (mRNA or protein) (fraction of control)
1,GAGGAGCGGCCAGCATGT,0.53
2,TGTTGTTAAACAGTAGAG,≥ 1
3,AGGGACACTGCCTTCTTC,0.57
4,AAAGAGAGAGAGAGAGAG,0.82
5,CCTGGAAGTGGTGCAGCC,0.84
6,TCAGATTCAACAGGCACC,≥ 1

# Target: MAP2K2
# Settings: ASO
row,Sequence,remaining target (mRNA or protein) (fraction of control)
1,TTTCGAAGTCATCGTCTT,0.56
2,AGCTTCCTGGCCATGATG,0.36
3,ATCTCAAGGTGGATCAGC,0.71
4,GTGCATGATCTGGTGCTT,0.24
5,TCCATCCCGTGACCGCTG,0.18
6,GGTTCTTGATGAGGCATT,0.31
7,GTGCCCTGCAACCGCTCC,0.14
8,CGTTCACAATATAGTCCA,0.4
9,GGTAGGGTTGATGGTGAG,0.56
10,CTTCTGCTGCTCGTCAAG,0.65
11,GTTTTGTTTTGTAACCTA,0.72
